Experimental data taken from US20240254186A1, “GLP-1 Receptor Agonists Having Improved Pharmacological and Drug Delivery Properties” (priority 2021, published 2024).
Numbered stars: 1 amine (or outer) side, 2 acyl side, 3 side chain; on linkers, the order of the positions; unused ones are H or OH. Square brackets hold non-standard residues; d marks the D form. Side chains are listed from the residue outwards. Peptide text beside a SMILES is read from it. * marks the point of attachment. Dap(Nα-HOOC(CH2)16CO)OH = O=C(O)CCCCCCCCCCCCCCCCC(=O)N[C@@H](CN*)C(=O)O; Bip = N[C@@H](Cc1ccc(-c2ccccc2)cc1)C(=O)O; C18 diacid = O=C(O)CCCCCCCCCCCCCCCCC(=O)*; Hydrocinnamoyl(4-I) = O=C(CCc1ccc(I)cc1)*; X2 = O=C(CCc1ccc(I)cc1)N[C@@H](CN*)C(=O)O; αMePhe(2-F) = C[C@](N)(Cc1ccccc1F)C(=O)O; γGlu = O=C(O)[C@H](CCC(=O)[*:2])N[*:1]; hPhe = N[C@@H](CCc1ccccc1)C(=O)O; PEG4 = NCCOCCOCCOCCOCCC(=O)O; αMeP = C[C@@]1(C(=O)O)CCCN1; dDap = NC[C@@H](N)C(=O)O; AEEA = NCCOCCOCC(=O)O; Aib = CC(C)(N)C(=O)O

Molecular target: T1, hGLP1 receptor (Homo sapiens, UniProt P43220)
T1 construct: expressed in transfected cells; host or cells: HEK (human embryonic kidney) cells co-expressing hGLP1 receptor and a CRE-Luciferase construct
T1 sequence (P43220 24-463): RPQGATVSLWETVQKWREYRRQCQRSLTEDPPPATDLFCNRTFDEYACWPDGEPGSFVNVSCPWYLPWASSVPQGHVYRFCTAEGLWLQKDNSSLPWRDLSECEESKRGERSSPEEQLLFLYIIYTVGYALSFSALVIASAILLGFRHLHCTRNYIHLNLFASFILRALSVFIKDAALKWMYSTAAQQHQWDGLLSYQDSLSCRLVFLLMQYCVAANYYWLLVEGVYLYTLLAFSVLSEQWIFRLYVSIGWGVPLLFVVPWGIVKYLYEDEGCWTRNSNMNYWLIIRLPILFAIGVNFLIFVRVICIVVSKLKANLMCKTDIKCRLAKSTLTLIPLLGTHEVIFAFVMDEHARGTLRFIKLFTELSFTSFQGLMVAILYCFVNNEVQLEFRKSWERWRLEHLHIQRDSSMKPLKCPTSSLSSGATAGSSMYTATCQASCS
Test: cAMP HTRF agonist assay in HEK cells co-expressing the hGLP1 receptor and CRE-Luciferase construct
Type: cell-based
Conditions: for EC50: read-out: cAMP EC50, nM (0.1% albumin), Table 6, C-terminal PK-modifier conjugates, 0.1% albumin; for potency relative to the parent peptide (1-4), fold less potent: versus parent 1-4
Method: Human embryonic kidney cells (HEK) co-expressing the hGLP1 receptor and CRE-Luciferase construct were used to determine agonist potency in this assay. The cells were thawed briefly at 37° C., transferred to a sterile tube and re-suspended in complete media at 37° C. Cells were centrifuged at 1000 rpm for 5 minutes and cells collected; cells were re-suspended in assay buffer consisting of DPBS (GIBCO) with 500 μM of the phosphodiesterase inhibitor IBMX. […] The optimal cell density was determined to be 1000 cells/well; cells were added to wells in 384-well plates containing appropriate pre-prepared dilutions of compounds (test peptides or reference compound exendin-4), sealed and incubated with CO2 for 30 min. Test peptide solutions were diluted from 10 mM stock solutions; for most peptides an initial run was performed in duplicate from a maximal concentration of 1.0 μM, with 11 concentrations tested for each peptide using serial 1:3 dilution from this maximal concentration. […] The agonist assay was a homogeneous time-resolved fluorescence (HTRF) assay (Cisbio).
Following incubation of the cells for 30 minutes with test or reference peptides, 5 μL of the cAMP acceptor cAMP-d2, prepared previously as a working solution from frozen stock (1:20 dilution), was added to each well of the assay plate, along with 5 μL of anti-cAMP antibody-cryptate working solution (diluted 1:20 from frozen stock). The wells were incubated for 1 hour at room temperature, and fluorescence was then read at 665 and 615 nm with an Envision reader with TRF laser. Data were saved and analyzed using Prism software (GraphPad). Concentration-response analysis was performed using 4-parameter logistic fits of the resulting data, and EC50 values obtained for each test and reference compound.

SMILES | EC50 [nM] | potency relative to the parent peptide (1-4), fold less potent | potency compared with the parent peptide analog (1-2), in words (replacement of Aib2, versus parent 1-2)
C[C@@H](O)[C@H](NC(=O)CNC(=O)[C@H](CCC(=O)O)NC(=O)C(C)(C)NC(=O)[C@@H](N)Cc1c[nH]cn1)C(=O)N[C@@](C)(Cc1ccccc1F)C(=O)N[C@H](C(=O)N[C@@H](CO)C(=O)N[C@@H](CC(=O)O)C(=O)N[C@@H](Cc1ccc(-c2ccccc2)cc1)C(=O)N[C@@H](Cc1ccc(-c2ccccc2)cc1)C(=O)NCCOCCOCC(=O)NCCOCCOCC(=O)NCCOCCOCC(=O)N[C@H](CNC(=O)CCc1ccc(I)cc1)C(N)=O)[C@@H](C)O [4-47, H2N-His-Aib-Glu-Gly-Thr-α-MePhe(2-F)-Thr-Ser-Asp-Bip-Bip-C(O)NH-RY9] (H-H[Aib]EGT[αMePhe(2-F)]TSD[Bip][Bip][AEEA][AEEA][AEEA][dDap](Hydrocinnamoyl(4-I))-NH2) | 0.6 |  | 
C[C@@H](O)[C@H](NC(=O)CNC(=O)[C@H](CCC(=O)O)NC(=O)C(C)(C)NC(=O)[C@@H](N)Cc1c[nH]cn1)C(=O)N[C@@](C)(Cc1ccccc1F)C(=O)N[C@H](C(=O)N[C@@H](CO)C(=O)N[C@@H](CC(=O)O)C(=O)N[C@@H](Cc1ccc(-c2ccccc2)cc1)C(=O)N[C@@H](CCc1ccccc1)C(=O)NCCOCCOCC(=O)NCCOCCOCC(=O)NC[C@H](NC(=O)CCCCCCCCCCCCCCCCC(=O)O)C(=O)O)[C@@H](C)O [4-36, H2N-His-Aib-Glu-Gly-Thr-α-MePhe(2-F)-Thr-Ser-Asp-Bip-Hph-C(O)NH-RY2] (H-H[Aib]EGT[αMePhe(2-F)]TSD[Bip][hPhe][AEEA][AEEA]-{Dap(Nα-HOOC(CH2)16CO)OH}) |  | 15 fold | 
C[C@@H](O)[C@H](NC(=O)CNC(=O)[C@H](CCC(=O)O)NC(=O)[C@]1(C)CCCN1C(=O)[C@@H](N)Cc1c[nH]cn1)C(=O)N[C@@](C)(Cc1ccccc1F)C(=O)N[C@H](C(=O)N[C@@H](CO)C(=O)N[C@@H](CC(=O)O)C(=O)N[C@@H](Cc1ccc(-c2ccccc2)cc1)C(=O)N[C@@H](Cc1ccc(-c2ccccc2)cc1)C(=O)NC(C)(C)C(=O)N[C@@H](CCCCNC(=O)CCOCCOCCOCCOCCNC(=O)CC[C@H](NC(=O)CCCCCCCCCCCCCCCCC(=O)O)C(=O)O)C(N)=O)[C@@H](C)O [4-65, H2N-His-α-MePro-Glu-Gly-Thr-α-MePhe(2-F)-Thr-Ser-Asp-Bip-Bip-C(O)NH-RY21] (H-H[αMeP]EGT[αMePhe(2-F)]TSD[Bip][Bip][Aib]K([PEG4-γGlu-C18 diacid])-NH2) | 3.8 |  | 

Now from value to compound:

EC50 [nM] | potency relative to the parent peptide (1-4), fold less potent | potency compared with the parent peptide analog (1-2), in words (replacement of Aib2, versus parent 1-2) | SMILES
4.08 | equipotency |  | C[C@@H](O)[C@H](NC(=O)CNC(=O)[C@H](CCC(=O)O)NC(=O)C(C)(C)NC(=O)[C@@H](N)Cc1c[nH]cn1)C(=O)N[C@@](C)(Cc1ccccc1F)C(=O)N[C@H](C(=O)N[C@@H](CO)C(=O)N[C@@H](CC(=O)O)C(=O)N[C@@H](Cc1ccc(-c2ccccc2)cc1)C(=O)N[C@@H](CCc1ccccc1)C(=O)NCCOCCOCC(=O)NCCOCCOCC(=O)NCCOCCOCC(=O)NC[C@H](NC(=O)CCc1ccc(I)cc1)C(=O)O)[C@@H](C)O [4-37, H2N-His-Aib-Glu-Gly-Thr-α-MePhe(2-F)-Thr-Ser-Asp-Bip-Hph-C(O)NH-RY3] (H-H[Aib]EGT[αMePhe(2-F)]TSD[Bip][hPhe][AEEA][AEEA][AEEA]-X2)
 | about 30 fold |  | C[C@@H](O)[C@H](NC(=O)CNC(=O)[C@H](CCC(=O)O)NC(=O)C(C)(C)NC(=O)[C@@H](N)Cc1c[nH]cn1)C(=O)N[C@@](C)(Cc1ccccc1F)C(=O)N[C@H](C(=O)N[C@@H](CO)C(=O)N[C@@H](CC(=O)O)C(=O)N[C@@H](Cc1ccc(-c2ccccc2)cc1)C(=O)N[C@@H](CCc1ccccc1)C(=O)O)[C@@H](C)O [4-1, H2N-His-Aib-Glu-Gly-Thr-α-MePhe(2-F)-Thr-Ser-Asp-Bip-Hph-C(O)OH] (H-H[Aib]EGT[αMePhe(2-F)]TSD[Bip][hPhe]-OH)
 |  | significantly greater potency | C[C@@H](O)[C@H](NC(=O)CNC(=O)[C@H](CCC(=O)O)NC(=O)[C@]1(C)CCCN1C(=O)[C@@H](N)Cc1c[nH]cn1)C(=O)N[C@@](C)(Cc1ccccc1F)C(=O)N[C@H](C(=O)N[C@@H](CO)C(=O)N[C@@H](CC(=O)O)C(=O)N[C@@H](Cc1ccc(-c2ccccc2)cc1)C(=O)N[C@@H](Cc1ccc(-c2ccccc2)cc1)C(N)=O)[C@@H](C)O [3-40, H2N-His-α-MePro-Glu-Gly-Thr-α-MePhe(2-F)-Thr-Ser-Asp-Bip-Bip-C(O)NH2] (H-H[αMeP]EGT[αMePhe(2-F)]TSD[Bip][Bip]-NH2)
